Reference: ChEMBL document CHEMBL5338820, “Discovery and Design of Novel Cyclic Peptides as Specific Inhibitors Targeting CCN2 and Disrupting CCN2/EGFR Interaction for Kidney Fibrosis Treatment” (J Med Chem, 2023)
The source made the active and inactive calls. The rule behind the calls is not given here. Peptide text beside a SMILES is read from it.

What was measured:
[1] = target: T1, CCN2-EGFR (Homo sapiens) (UniProt P00533+P29279); assay: Inhibition of His-tagged full length human CCN2 CT domain/human Fc-tagged EGFR protein-protein interaction using TMB as chromogenic substrate at 100 uM incubated for 140 mins by microplate reader assay relative to control
[2] = target: T1, CCN2-EGFR (Homo sapiens); assay: Inhibition of His-tagged full length human CCN2 FL domain/human Fc-tagged EGFR protein-protein interaction using TMB as chromogenic substrate at 100 uM incubated for 140 mins by microplate reader assay relative to control
[3] = target: T2, CCN family member 2 (Homo sapiens) (UniProt P29279); assay: Inhibition of recombinant human CCN2 CT domain expressed in human […] cells assessed as reduction in fibronectin synthesis at 100 uM incubated for 24 hrs by Western blotting assay; format: cell-based
T2 sequence (whole entry): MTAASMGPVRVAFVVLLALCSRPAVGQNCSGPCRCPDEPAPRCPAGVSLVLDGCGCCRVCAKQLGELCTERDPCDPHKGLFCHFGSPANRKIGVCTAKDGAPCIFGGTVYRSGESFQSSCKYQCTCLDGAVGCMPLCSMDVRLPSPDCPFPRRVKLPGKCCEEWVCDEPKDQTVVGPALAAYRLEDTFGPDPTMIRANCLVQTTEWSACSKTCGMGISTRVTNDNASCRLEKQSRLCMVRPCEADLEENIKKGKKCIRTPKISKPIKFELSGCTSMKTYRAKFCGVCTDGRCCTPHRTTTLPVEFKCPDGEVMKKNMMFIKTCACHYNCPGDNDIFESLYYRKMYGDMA

[4] = target: T2, CCN family member 2 (Homo sapiens); assay: Inhibition of recombinant human CCN2 CT domain expressed in human […] cells assessed as reduction in COL1A1 synthesis at 100 uM incubated for 24 hrs by Western blotting assay; format: cell-based

T1 sequence (P00533 whole entry, looked up, one chain of several, the tested form may be a part): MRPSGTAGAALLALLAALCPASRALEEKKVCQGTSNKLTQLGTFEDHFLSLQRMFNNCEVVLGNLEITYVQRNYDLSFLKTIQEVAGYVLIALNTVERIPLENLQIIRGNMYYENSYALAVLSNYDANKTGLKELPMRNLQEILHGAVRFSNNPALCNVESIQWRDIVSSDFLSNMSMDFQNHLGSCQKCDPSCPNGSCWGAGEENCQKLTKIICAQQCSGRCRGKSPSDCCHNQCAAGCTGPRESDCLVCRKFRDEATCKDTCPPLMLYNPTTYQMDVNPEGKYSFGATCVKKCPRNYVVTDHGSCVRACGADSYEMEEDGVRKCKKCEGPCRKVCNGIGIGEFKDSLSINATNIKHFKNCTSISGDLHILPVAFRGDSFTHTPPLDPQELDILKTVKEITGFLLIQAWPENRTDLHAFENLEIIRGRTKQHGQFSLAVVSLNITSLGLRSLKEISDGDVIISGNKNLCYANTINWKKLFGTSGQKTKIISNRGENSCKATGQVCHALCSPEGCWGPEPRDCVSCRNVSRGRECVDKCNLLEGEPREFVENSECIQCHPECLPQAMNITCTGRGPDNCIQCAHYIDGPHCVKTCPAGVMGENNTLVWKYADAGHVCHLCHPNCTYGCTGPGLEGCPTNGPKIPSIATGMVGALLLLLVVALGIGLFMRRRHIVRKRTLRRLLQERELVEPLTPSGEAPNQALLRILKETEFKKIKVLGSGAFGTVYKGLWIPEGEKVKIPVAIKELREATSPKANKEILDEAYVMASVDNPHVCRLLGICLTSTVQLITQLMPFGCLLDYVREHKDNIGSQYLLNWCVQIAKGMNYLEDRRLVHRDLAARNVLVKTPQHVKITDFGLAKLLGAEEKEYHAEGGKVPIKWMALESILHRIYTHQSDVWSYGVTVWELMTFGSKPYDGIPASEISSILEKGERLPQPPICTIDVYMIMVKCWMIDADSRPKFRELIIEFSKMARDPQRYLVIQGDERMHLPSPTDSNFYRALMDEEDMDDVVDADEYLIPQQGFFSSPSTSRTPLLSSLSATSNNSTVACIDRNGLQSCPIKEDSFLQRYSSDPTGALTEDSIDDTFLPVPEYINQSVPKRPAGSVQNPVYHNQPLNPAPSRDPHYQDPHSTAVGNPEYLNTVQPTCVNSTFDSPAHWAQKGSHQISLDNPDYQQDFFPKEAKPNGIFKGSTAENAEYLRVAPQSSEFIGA

Structure (SMILES)	inhibition [1] [%]	inhibition [2] [%]	inhibition [3]	inhibition [4]
C[C@@H](O)[C@H](N)C(=O)N[C@@H](CCC(=O)O)C(=O)N[C@@H](Cc1c[nH]cn1)C(=O)N[C@@H](CCCNC(=N)N)C(=O)N1CCC[C@H]1C(=O)N[C@@H](Cc1c[nH]c2ccccc12)C(=O)N[C@H](C(N)=O)[C@@H](C)O (H-TEHRPWT-NH2)	11.5	12.5	–	–
C[C@@H](O)[C@H](NC(=O)[C@H](Cc1c[nH]c2ccccc12)NC(=O)[C@@H]1CCCN1C(=O)[C@H](CCCNC(=N)N)NC(=O)[C@H](Cc1c[nH]cn1)NC(=O)[C@@H](N)Cc1c[nH]cn1)C(N)=O (H-HHRPWT-NH2)	9.4	16	inactive	inactive
C[C@@H](O)[C@H](N)C(=O)N[C@@H](Cc1c[nH]cn1)C(=O)N[C@@H](CCC(=O)O)C(=O)N[C@@H](CCCNC(=N)N)C(=O)N1CCC[C@H]1C(=O)N[C@@H](Cc1c[nH]c2ccccc12)C(=O)N[C@H](C(N)=O)[C@@H](C)O (H-THERPWT-NH2)	12.1	15.5	–	–
C[C@@H](O)[C@H](N)C(=O)N[C@@H](Cc1c[nH]cn1)C(=O)N[C@@H](CCCCN)C(=O)N[C@@H](CCCNC(=N)N)C(=O)N1CCC[C@H]1C(=O)N[C@@H](Cc1c[nH]c2ccccc12)C(=O)N[C@H](C(N)=O)[C@@H](C)O (H-THKRPWT-NH2)	63.4	59.7	Active	Active
CC(C)C[C@H](NC(=O)[C@@H](N)CC(C)C)C(=O)N[C@@H](C)C(=O)N[C@@H](CC(=O)O)C(=O)N[C@@H](C)C(=O)N[C@H](C(=O)N[C@@H](Cc1c[nH]cn1)C(=O)N[C@@H](Cc1c[nH]cn1)C(=O)N[C@@H](CCCNC(=N)N)C(=O)N1CCC[C@H]1C(=O)N[C@@H](Cc1c[nH]c2ccccc12)C(=O)N[C@H](C(N)=O)[C@@H](C)O)[C@@H](C)O (H-LLADATHHRPWT-NH2)	70.7	59	–	–
C[C@@H](O)[C@H](N)C(=O)N[C@@H](Cc1c[nH]cn1)C(=O)N[C@@H](Cc1c[nH]cn1)C(=O)N[C@@H](CCCNC(=N)N)C(=O)N[C@@H](CCC(N)=O)C(=O)N[C@@H](Cc1c[nH]c2ccccc12)C(=O)N[C@H](C(N)=O)[C@@H](C)O (H-THHRQWT-NH2)	1.2	4.5	–	–
C[C@@H](O)[C@H](N)C(=O)N[C@@H](Cc1c[nH]cn1)C(=O)N[C@@H](Cc1c[nH]cn1)C(=O)N[C@@H](CCC(N)=O)C(=O)N1CCC[C@H]1C(=O)N[C@@H](Cc1c[nH]c2ccccc12)C(=O)N[C@H](C(N)=O)[C@@H](C)O (H-THHQPWT-NH2)	8.1	2.1	–	–
CC(C)C[C@H](NC(=O)[C@@H](N)CC(C)C)C(=O)N[C@@H](C)C(=O)N[C@@H](CC(=O)O)C(=O)N[C@H](C(=O)N[C@@H](C)C(=O)N[C@@H](Cc1c[nH]cn1)C(=O)N[C@@H](Cc1c[nH]cn1)C(=O)N[C@@H](CCCNC(=N)N)C(=O)N1CCC[C@H]1C(=O)N[C@@H](Cc1c[nH]c2ccccc12)C(=O)N[C@H](C(N)=O)[C@@H](C)O)[C@@H](C)O (H-LLADTAHHRPWT-NH2)	44.1	36.5	–	–
C[C@@H](O)[C@H](N)C(=O)N[C@@H](Cc1c[nH]cn1)C(=O)N[C@@H](Cc1c[nH]cn1)C(=O)N[C@@H](CCCNC(=N)N)C(=O)N[C@@H](CCC(=O)O)C(=O)N[C@@H](Cc1c[nH]c2ccccc12)C(=O)N[C@H](C(N)=O)[C@@H](C)O (H-THHREWT-NH2)	11.1	19.6	–	–
C[C@@H](O)[C@@H]1NC(=O)[C@H](Cc2c[nH]c3ccccc23)NC(=O)[C@@H]2CCCN2C(=O)[C@H](CCCNC(=N)N)NC(=O)[C@H](CCCCN)NC(=O)[C@H](Cc2c[nH]cn2)NC(=O)[C@H]([C@@H](C)O)NC1=O (cyclo(HKRPWTT))	13.2	17.4	–	–
CC(C)C[C@H](NC(=O)[C@H](C)N)C(=O)N[C@@H](C)C(=O)N[C@@H](CC(=O)O)C(=O)N[C@H](C(=O)N[C@H](C(=O)N[C@@H](Cc1c[nH]cn1)C(=O)N[C@@H](Cc1c[nH]cn1)C(=O)N[C@@H](CCCNC(=N)N)C(=O)N1CCC[C@H]1C(=O)N[C@@H](Cc1c[nH]c2ccccc12)C(=O)N[C@H](C(N)=O)[C@@H](C)O)[C@@H](C)O)[C@@H](C)O (H-ALADTTHHRPWT-NH2)	70.8	58.7	–	–
CC(C)C[C@H](NC(=O)[C@@H](N)CC(C)C)C(=O)N[C@@H](C)C(=O)N[C@@H](CC(=O)O)C(=O)N[C@H](C(=O)N[C@H](C(=O)N[C@@H](Cc1c[nH]cn1)C(=O)N[C@@H](Cc1c[nH]cn1)C(=O)N[C@@H](CCCNC(=N)N)C(=O)N1CCC[C@H]1C(=O)N[C@@H](Cc1c[nH]c2ccccc12)C(=O)N[C@@H](C)C(N)=O)[C@@H](C)O)[C@@H](C)O (H-LLADTTHHRPWA-NH2)	14.2	13.5	–	–
CC(C)C[C@H](NC(=O)[C@@H](N)CC(C)C)C(=O)N[C@@H](C)C(=O)N[C@@H](C)C(=O)N[C@H](C(=O)N[C@H](C(=O)N[C@@H](Cc1c[nH]cn1)C(=O)N[C@@H](Cc1c[nH]cn1)C(=O)N[C@@H](CCCNC(=N)N)C(=O)N1CCC[C@H]1C(=O)N[C@@H](Cc1c[nH]c2ccccc12)C(=O)N[C@H](C(N)=O)[C@@H](C)O)[C@@H](C)O)[C@@H](C)O (H-LLAATTHHRPWT-NH2)	76	61.4	–	–
C[C@@H](O)[C@H](N)C(=O)N[C@@H](Cc1c[nH]cn1)C(=O)N[C@@H](Cc1c[nH]cn1)C(=O)N[C@@H](CCC(=O)O)C(=O)N1CCC[C@H]1C(=O)N[C@@H](Cc1c[nH]c2ccccc12)C(=O)N[C@H](C(N)=O)[C@@H](C)O (H-THHEPWT-NH2)	61.9	12.4	–	–
C[C@@H](O)[C@H](N)C(=O)N[C@@H](CCC(N)=O)C(=O)N[C@@H](Cc1c[nH]cn1)C(=O)N[C@@H](CCCNC(=N)N)C(=O)N1CCC[C@H]1C(=O)N[C@@H](Cc1c[nH]c2ccccc12)C(=O)N[C@H](C(N)=O)[C@@H](C)O (H-TQHRPWT-NH2)	11.8	6.8	–	–
CC(C)C[C@H](NC(=O)[C@H](CCCNC(=N)N)NC(=O)[C@H](Cc1c[nH]cn1)NC(=O)[C@H](Cc1c[nH]cn1)NC(=O)[C@@H](N)[C@@H](C)O)C(=O)N[C@@H](Cc1c[nH]c2ccccc12)C(=O)N[C@H](C(N)=O)[C@@H](C)O (H-THHRLWT-NH2)	43.6	37.1	–	–
CC(C)C[C@H](N)C(=O)N[C@@H](C)C(=O)N[C@@H](C)C(=O)N[C@@H](CC(=O)O)C(=O)N[C@H](C(=O)N[C@H](C(=O)N[C@@H](Cc1c[nH]cn1)C(=O)N[C@@H](Cc1c[nH]cn1)C(=O)N[C@@H](CCCNC(=N)N)C(=O)N1CCC[C@H]1C(=O)N[C@@H](Cc1c[nH]c2ccccc12)C(=O)N[C@H](C(N)=O)[C@@H](C)O)[C@@H](C)O)[C@@H](C)O (H-LAADTTHHRPWT-NH2)	69.5	62.8	–	–
CC(C)C[C@H](NC(=O)[C@@H](N)CC(C)C)C(=O)N[C@@H](C)C(=O)N[C@@H](CC(=O)O)C(=O)N[C@H](C(=O)N[C@H](C(=O)N[C@@H](Cc1c[nH]cn1)C(=O)N[C@@H](C)C(=O)N[C@@H](CCCNC(=N)N)C(=O)N1CCC[C@H]1C(=O)N[C@@H](Cc1c[nH]c2ccccc12)C(=O)N[C@H](C(N)=O)[C@@H](C)O)[C@@H](C)O)[C@@H](C)O (H-LLADTTHARPWT-NH2)	65.8	48.6	–	–
C[C@@H](O)[C@H](N)C(=O)N[C@@H](Cc1c[nH]cn1)C(=O)N[C@@H](CCC(N)=O)C(=O)N[C@@H](CCCNC(=N)N)C(=O)N1CCC[C@H]1C(=O)N[C@@H](Cc1c[nH]c2ccccc12)C(=O)N[C@H](C(N)=O)[C@@H](C)O (H-THQRPWT-NH2)	10.9	5.1	–	–
CC(C)C[C@H](NC(=O)[C@@H](N)CC(C)C)C(=O)N[C@@H](C)C(=O)N[C@@H](CC(=O)O)C(=O)N[C@H](C(=O)N[C@H](C(=O)N[C@@H](Cc1c[nH]cn1)C(=O)N[C@@H](Cc1c[nH]cn1)C(=O)N[C@@H](CCCNC(=N)N)C(=O)N1CCC[C@H]1C(=O)N[C@@H](C)C(=O)N[C@H](C(N)=O)[C@@H](C)O)[C@@H](C)O)[C@@H](C)O (H-LLADTTHHRPAT-NH2)	10.7	8.7	–	–
CC(C)C[C@H](NC(=O)[C@@H](N)CC(C)C)C(=O)N[C@@H](C)C(=O)N[C@@H](CC(=O)O)C(=O)N[C@H](C(=O)N[C@H](C(=O)N[C@@H](Cc1c[nH]cn1)C(=O)N[C@@H](Cc1c[nH]cn1)C(=O)N[C@@H](C)C(=O)N1CCC[C@H]1C(=O)N[C@@H](Cc1c[nH]c2ccccc12)C(=O)N[C@H](C(N)=O)[C@@H](C)O)[C@@H](C)O)[C@@H](C)O (H-LLADTTHHAPWT-NH2)	72.5	57.8	–	–
CC(C)C[C@H](NC(=O)[C@@H](N)CC(C)C)C(=O)N[C@@H](C)C(=O)N[C@@H](CC(=O)O)C(=O)N[C@H](C(=O)N[C@H](C(=O)N[C@@H](Cc1c[nH]cn1)C(=O)N[C@@H](Cc1c[nH]cn1)C(=O)N[C@@H](CCCNC(=N)N)C(=O)N[C@@H](C)C(=O)N[C@@H](Cc1c[nH]c2ccccc12)C(=O)N[C@H](C(N)=O)[C@@H](C)O)[C@@H](C)O)[C@@H](C)O (H-LLADTTHHRAWT-NH2)	65.6	56.5	–	–
CC(C)C[C@H](NC(=O)[C@@H](N)CC(C)C)C(=O)N[C@@H](C)C(=O)N[C@@H](CC(=O)O)C(=O)N[C@H](C(=O)N[C@H](C(=O)N[C@@H](C)C(=O)N[C@@H](Cc1c[nH]cn1)C(=O)N[C@@H](CCCNC(=N)N)C(=O)N1CCC[C@H]1C(=O)N[C@@H](Cc1c[nH]c2ccccc12)C(=O)N[C@H](C(N)=O)[C@@H](C)O)[C@@H](C)O)[C@@H](C)O (H-LLADTTAHRPWT-NH2)	70.5	59.6	–	–
